Measured values from US9000045B2, “CETP activity inhibitors” (Japan Tobacco Inc., priority 1997, dated 2015).

Columns and labels:
CETP [1] = target: T1, CETP (Homo sapiens, UniProt P11597); test: In vitro CETP activity inhibitory effect in whole plasma; format: biochemical; design: Plasma containing [^3H]CE-HDL3 (600,000 dpm/ml) was prepared by adding donor lipoprotein obtained in the above (1) to plasma from healthy subjects; from tissue; host or cells: whole plasma of healthy subjects; conditions: plasma from healthy subjects containing [3H]CE-HDL3, incubated 4 hours at 37° C.; read-out: CETP activity inhibition in whole plasma IC50
T1 sequence (P11597 18-493): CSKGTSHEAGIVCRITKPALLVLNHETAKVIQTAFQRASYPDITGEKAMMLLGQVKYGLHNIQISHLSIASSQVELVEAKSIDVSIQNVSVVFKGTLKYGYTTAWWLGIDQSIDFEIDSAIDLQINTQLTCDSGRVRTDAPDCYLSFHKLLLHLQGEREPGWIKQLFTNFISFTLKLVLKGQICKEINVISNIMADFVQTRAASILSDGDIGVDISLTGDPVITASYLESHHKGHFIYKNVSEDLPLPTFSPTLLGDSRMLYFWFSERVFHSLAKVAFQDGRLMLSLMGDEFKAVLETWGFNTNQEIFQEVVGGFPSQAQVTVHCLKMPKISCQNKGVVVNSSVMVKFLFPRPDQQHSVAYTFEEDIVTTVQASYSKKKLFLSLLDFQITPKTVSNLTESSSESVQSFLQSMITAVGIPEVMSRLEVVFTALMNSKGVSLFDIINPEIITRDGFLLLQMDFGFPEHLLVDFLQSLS
In short: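 HDL3 was labelled with tritiated cholesterol (10 nM) for 18 h at 37° C in PBS with EDTA (pH 7.4). Test samples were in 1:1 N-methylpyrrolidone/PEG 400 and assayed in whole plasma. IC50 was calculated from % inhibition of CETP activity.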

CETP [2] = target: T1, CETP; test: Ex vivo CETP activity inhibitory effect of plasma from transgenic mice; design: from tissue; host or cells: plasma of transgenic mice carrying the human CETP gene; conditions: mouse, po, p.o., 6 hours after administration, transgenic mice with human CETP gene, read-out: CETP activity inhibitory rate in plasma from transgenic mouse
Experimental: Potassium bromide (KBr) was added to the plasma of healthy subjects (40 ml) to adjust specific gravity to d=1.125 g/ml. Density gradient centrifugation (227,000×g, 4° C., 17 hours) was conducted to obtain a fraction with specific gravity d>1.125 g/ml (HDL3 fraction). The fraction thus obtained was dialyzed against a PBS solution [10 mM Na2HPO4/10 mM NaH2PO4/0.15 M NaCl/1 mM EDTA (pH 7.4)]. Then, tritium-labeled cholesterol (10 nM) (50.3 Ci/mM) was dissolved in 95% ethanol and added gradually to the above HDL3 fraction under stirring. The solution was incubated for 18 hours at 37° C. [Tritium-labeled cholesterol was esterified by this procedure by the action of lecithin:cholesterol acyltransferase (LCAT) present on the surface of HDL3 and taken up into the interior of HDL3 as tritium-labeled cholesterylester ([^3H]CE)]. After incubation, KBr was added and specific gravity was adjusted to d=1.21 g/ml. Density gradient centrifugation (227,000×g, 4° C., 17 hours) was conducted and the fraction with d<1.21 g/ml was harvested. The fraction thus obtained was dialyzed against the above PBS solution to obtain HDL3 that took up [^3H]CE ([^3H]CE-HDL3, specific gravity: 1.125<d<1.21, specific activity: 101,000 dpm/nM), which served as donor lipoprotein.
Physiological saline (specific gravity d=1.006 g/ml) was layered upon the plasma of healthy subjects (100 ml). Density gradient centrifugation (227,000×g, 4° C., 4 hours) was conducted and the fraction with specific gravity d>1.006 g/ml was harvested. KBr was added to the fraction thus obtained to adjust specific gravity to d=1.063 g/ml and density gradient centrifugation (227,000×g, 4° C., 20 hours) was conducted to harvest the fraction with specific gravity […]. The thus-obtained fraction was dialyzed against the above PBS solution to obtain fractions containing IDL and LDL (specific gravity: 1.006<d<1.063), which served as acceptor lipoprotein.
Samples were suspended in a 0.5% methylcellulose solution and administered orally using a plastic probe to transgenic mice having introduced human CETP gene (hereafter referred to as mice; prepared using the method described in Japanese Patent Application No. Hei 8-130660), which had been fasted overnight. Blood was collected before administration, and 6 hours after administration CETP activity in the plasma was determined using the following method.
Donor lipoprotein ([^3H]CE-HDL3, containing 0.21 μg cholesterol) obtained in the above (1), acceptor lipoprotein obtained in the above (2) (containing 21 μg of cholesterol), and 0.9 μl of mice plasma were added to microtubes. A total volume was adjusted to 600 μl/tube with a TBS solution [10 mM Tris/0.15 M NaCl (pH 7.4)]. The microtubes were incubated for 15 hours at 37° C. or 4° C. Then, an ice-cooled TBS solution (400 μl/tube) and a 0.3% dextran sulfate solution (100 μl/tube) containing 0.15 M magnesium chloride were added to the microtubes and mixed well. After allowing the microtubes to stand for 30 minutes at 4° C., centrifugation (8,000 rpm, 4° C., 10 minutes) was carried out and radioactivity of the resulting supernatant (HDL fraction) was determined with a scintillation counter.

Row | Structure (SMILES) | IC50 (CETP [1]) [µM] | inhibition at 30 mg/kg (CETP [2]) [%] | inhibition at 10 mg/kg (CETP [2]) [%] | inhibition at 100 mg/kg (CETP [2]) [%] | inhibition at 300 mg/kg (CETP [2]; 300 mg/kg) [%]
1 | CC(C)CC1(C(=O)Nc2ccccc2SC(=O)C(C)C)CCCCC1 [Example 27, S-[2-(1-isobutylcyclohexanecarbonylamino)phenyl]2-methylthiopropionate] | 7 | 31 | – | – | –
2 | CCC(CC)CC1(C(=O)Nc2ccccc2SC(=O)C2CCN(C(C)=O)CC2)CCCCC1 [Example 28, S[2-[1-(2-ethylbutyl)cyclohexanecarbonylamino)-phenyl]1-acetylpiperidine-4-thiocarboxylate] | 6 | 36 | – | – | –
3 | CC(C)CCC1(C(=O)Nc2ccccc2SC(=O)C(C)(C)C)CCCCC1 [Example 33] | 61 | 39 | 23 | 52 | 55
4 | CC(=O)N[C@@H](Cc1ccccc1)C(=O)Sc1ccccc1NC(=O)C1(CCC(C)C)CCCCC1 [Example 34] | 9 | 4 | – | – | –
5 | CC(C)CCC1(C(=O)Nc2ccccc2SC(=O)CCl)CCCCC1 [Example 36] | 16 | 19 | – | – | –
6 | COCC(=O)Sc1ccccc1NC(=O)C1(CCC(C)C)CCCCC1 [Example 37] | 7 | 42 | 18 | 47 | –
7 | CCC(=O)Sc1ccccc1NC(=O)C1(CCC(C)C)CCCCC1 [Example 38] | 6 | 40 | 15 | – | –
8 | CC(C)CCC1(C(=O)Nc2ccccc2SC(=O)COc2ccccc2)CCCCC1 [Example 39] | 11 | 41 | 17 | – | –
9 | CC(C)CCC1(C(=O)Nc2ccccc2SC(=O)C(C)C)CCCCC1 [Example 40] | 23 | 48 | 20 | 64 | –
10 | CC(C)CCC1(C(=O)Nc2ccccc2SC(=O)COc2ccc(Cl)cc2)CCCCC1 [Example 41] | 7 | 42 | 27 | – | –
11 | CC(C)CCC1(C(=O)Nc2ccccc2SC(=O)C2CC2)CCCCC1 [Example 42] | 9 | 38 | 31 | – | –
12 | CC(=O)N[C@@H](CCC(N)=O)C(=O)Sc1ccccc1NC(=O)C1(CCC(C)C)CCCCC1 [Example 45] | 7 | 36 | 18 | – | –
13 | CC(C)CCC1(C(=O)Nc2ccccc2SC(=O)C(C)(C)O)CCCCC1 [Example 46] | 5 | 48 | 22 | – | –
14 | CC(C)CCC1(C(=O)Nc2ccccc2SC(=O)C2(N)CCCCC2)CCCCC1 [Example 47] | 6 | 31 | – | – | –
15 | CC(C)CCC1(C(=O)Nc2ccccc2SC(=O)C(C)(C)C)CCCC1 [Example 48] | 49 | 31 | – | 50 | –
16 | CC(=O)Sc1ccccc1NC(=O)C1(CCC(C)C)CCCC1 [Example 49] | 6 | 29 | – | – | –

Row | Structure (SMILES) | IC50 (CETP [1]) [µM] | inhibition at 30 mg/kg (CETP [2]) [%] | inhibition at 10 mg/kg (CETP [2]) [%] | inhibition at 100 mg/kg (CETP [2]) [%] | inhibition at 300 mg/kg (CETP [2]; 300 mg/kg) [%]
17 | CC(C)CCC1(C(=O)Nc2cc(C(F)(F)F)ccc2SC(=O)C(C)(C)C)CCCCC1 [Example 52] | 8 | 8 | – | – | –
18 | CC(C)CCC1(C(=O)Nc2ccccc2SC(=O)Nc2ccccc2)CCCCC1 [Example 56] | 13 | 34 | – | – | –
19 | CCC(CC)CC1(C(=O)Nc2ccccc2SC(C)=O)CCCCC1 [Example 59] | 4 | 44 | – | – | –
20 | CCC(CC)CC1(C(=O)Nc2ccccc2SC(=O)C(C)(C)C)CCCCC1 [Example 60] | 41 | 44 | – | – | –
21 | CCC(CC)CC1(C(=O)Nc2ccccc2SC(=O)COC)CCCCC1 [Example 61] | 4 | 38 | – | – | –
22 | CCC(CC)CC1(C(=O)Nc2ccccc2SC(=O)C(C)(C)O)CCCCC1 [Example 62] | 4 | 38 | – | – | –
23 | CCC(CC)CC1(C(=O)Nc2ccccc2SC(=O)COc2ccc(Cl)cc2)CCCCC1 [Example 63] | 4 | 43 | – | – | –
24 | CC(C)CC1(C(=O)Nc2ccccc2SC(=O)COc2ccc(Cl)cc2)CCCCC1 [Example 64] | 4 | 34 | – | – | –
25 | CC(C)CCC1(C(=O)Nc2cc([N+](=O)[O-])ccc2SC(=O)C(C)(C)C)CCCCC1 [Example 74] | 14 | 5 | – | – | –
26 | CC(C)CCC1(C(=O)Nc2cc(C#N)ccc2SC(=O)C(C)(C)C)CCCCC1 [Example 75] | 25 | 1 | – | – | –
27 | CC(C)CCC1(C(=O)Nc2cc(Cl)ccc2SC(=O)C(C)(C)C)CCCCC1 [Example 76] | 18 | 4 | – | – | –
28 | CC(C)CCC1(C(=O)Nc2ccc(Cl)cc2SC(=O)C(C)(C)C)CCCCC1 [Example 77] | 17 | 1 | – | – | –
29 | CC(C)CCC1(C(=O)Nc2cc(F)ccc2SC(=O)C(C)(C)C)CCCCC1 [Example 79] | 60 | 26 | 14 | – | –
30 | CC(C)CCC1(C(=O)Nc2cc(F)c(F)cc2SC(=O)C(C)(C)C)CCCCC1 [Example 80] | 6 | 12 | – | – | –
31 | CC(C)CCC1(C(=O)Nc2ccc(F)cc2SC(=O)C(C)(C)C)CCCCC1 [Example 81] | 21 | 10 | – | – | –
